Experimental data reported in patent publication US9718792B2, “Isoxazoline hydroxamic acid derivatives as LpxC inhibitors” (priority 2014, dated 2017).
pIC50: −log10 of the molar value. In brackets after ≈: the same amount, converted by molar mass.

Assays:
P. aeruginosa LpxC = P. aeruginosa LpxC (Pseudomonas aeruginosa (strain ATCC 15692 / DSM 22644 / CIP 104116 / JCM 14847 / LMG 12228 / 1C / PRS 101 / PAO1), UniProt P47205); experiment: P. aeruginosa LpxC Inhibition Assay; assay type: biochemical; conditions: 1 nM P. aeruginosa LpxC, 2 μM substrate, LC-MS/MS; read-out: PA LpxC IC50
From the text: The P. aeruginosa LpxC protein is produced according to the general method of Hyland et al (Journal of Bacteriology 1997 179, 2029-2037: Cloning, expression and purification of UDP-3-O-acyl-GIcNAc deacetylase from Pseudomonas aeruginosa: a metalloamidase of the lipid A biosynthesis pathway). The LC-MS/MS method for quantitation of LpxC product was developed using an Agilent 1200 Capillary HPLC system coupled to an Applied Biosystems MDS Sciex 4000QTRAP mass spectrometer. Both instruments are controlled using the Applied Biosystems MDS Sciex Analyst software. LpxC reaction product (UDP-3-O—(R-3-hydroxyacyl)-glucosamine) was produced by hydrolysis of LpxC substrate catalyzed by P.a. LpxC and purified using reversed phase chromatography on a Phenomenex Luna C18(2) 4.6×50 mm column. An LpxC product calibration curve was generated to evaluate the sensitivity and dynamic range of the LC-MS/MS method. Briefly, compounds are pre-incubated with 1 nM P. aeruginosa LpxC for 30 min. at room temperature. Reactions are initiated by the addition of 2 μM UDP-3-O—(R-3-hydroxydecanoyl)-GIcNAc. Reactions are conducted in a 384-well plate with a total volume of 50 μL in each well containing 50 mM Sodium phosphate pH 7.5, 0.005% Trition X-100 for 20 min at room temperature. After quenching with 1.8% HOAc (5 μL of a 20% HOAc added to each well), reaction mixtures are analyzed using the LC-MS/MS method and peak areas are transformed into product concentration using a LpxC product calibration curve. Total activity (0% inhibition control) is obtained from reactions with no inhibitors and 100% inhibition control is the background using quenched samples before reaction starts. For IC50 determinations, peak areas are converted to percent inhibition in Microsoft Excel. Percent inhibition values are plotted vs. log compound concentration using XLfit. Data is fit to the four-parameter logistic equation using the non-linear regression algorithm in XLfit to return the IC50 and hill slope values.

P. aeruginosa PAO1 = experiment: Susceptibility Testing (MIC, broth microdilution); assay type: cell-based, Pseudomonas aeruginosa; conditions: P. aeruginosa PAO1, broth microdilution, 20 hours; for MIC: Pseudomonas aeruginosa, PAO1, 20 h, read-out: PAO1 MIC
Description: Bacterial isolates were cultivated from −70° C. frozen stocks by two consecutive overnight passages at 35° C. in ambient air on 5% blood agar (Remel, Lenexa, Kans.). Quality control and P. aeruginosa ATCC 27853) is from the American Type Culture Collection (ATCC; Rockville, Md.) and PAO1 was received from Dr. K. Poole.
Minimal Inhibitory Concentrations (MICs) were determined by the broth microdilution method in accordance with Clinical and Laboratories Institute (CLSI) guidelines. In brief, fresh bacterial overnight cultures were resuspended in sterile saline, adjusted to a 0.5 McFarland turbidity standard and then diluted […] in cation adjusted Mueller-Hinton Broth II (MHB; Remel BBL) to yield a final inoculum of approximately 5×10^5 colony-forming units (CFU)/mL. Two-fold serial dilutions of compounds were prepared in 100% dimethyl sulfoxide (DMSO) at 100-fold the highest final assay concentration; the resulting dilution series of compounds were diluted 1:10 with sterile water. Ten μl of the drug dilution series in 10% DMSO was transferred to microtiter wells and 90 μl of bacterial suspension was inoculated into the wells. All inoculated microdilution trays were incubated in ambient air at […] for 20 hours. Following incubation, assay plates were read in a microtiter plate reader at 600 nm and visually inspected to confirm the MIC endpoint well with the OD value. The lowest concentration of the compound that prevented visible growth was recorded as the MIC. Performance of the assay was monitored by testing ciprofloxacin against laboratory quality control strains in accordance with guidelines of the CLSI.

pIC50 (P. aeruginosa LpxC) | MIC (P. aeruginosa PAO1) [µg/mL] | Compound | PAO1 MIC (P. aeruginosa PAO1) [µg/mL]
9.00 | 0.25 (≈ 0.56 µM) | C[C@@H](O)c1ccc(-c2ccc(C3=NO[C@@H](C[C@](C)(C(=O)NO)S(C)(=O)=O)C3)cc2)cc1 [Compound 49, (R)—N-hydroxy-3-((R)-3-(4′-((R)-1-hydroxyethyl)-[1,1′-biphenyl]-4-yl)-4,5-dihydroisoxazol-5-yl)-2-methyl-2-(methylsulfonyl)] | –
9.00 | 0.125 (≈ 0.271 µM) | C[C@H](O)Cc1ccc(-c2ccc(C3=NO[C@@H](C[C@](C)(C(=O)NO)S(C)(=O)=O)C3)cc2)cc1 [Compound 46, (R)—N-hydroxy-3-((R)-3-(4′-((S)-2-hydroxypropyl)-[1,1′-biphenyl]-4-yl)-4,5-dihydroisoxazol-5-yl)-2-methyl-2-(methylsulfonyl)] | –
> 9.30 | 1 (≈ 2.31 µM) | C[C@@](C[C@H]1CC(c2ccc(-c3cccc(CO)c3)cc2)=NO1)(C(=O)NO)S(C)(=O)=O [Compound 57, (R)—N-hydroxy-3-((R)-3-(3′-(hydroxymethyl)-[1,1′-biphenyl]-4-yl)-4,5-dihydroisoxazol-5-yl)-2-methyl-2-(methylsulfonyl)] | –
> 9.30 | 1 (≈ 2.17 µM) | CC(C)(O)c1ccc(-c2ccc(C3=NO[C@@H](C[C@](C)(C(=O)NO)S(C)(=O)=O)C3)cc2)cn1 [Compound 84, (R)—N-hydroxy-3-((R)-3-(4-(6-(2-hydroxypropan-2-yl)pyridin-3-yl)phenyl)-4,5-dihydroisoxazol-5-yl)-2-methyl-2-(methylsulfonyl)propanamide] | –
> 9.30 | 0.71 (≈ 1.48 µM) | C[C@@H](O)Cc1ccc(-c2ccc(C3=NO[C@@H](C[C@](C)(C(=O)NO)S(C)(=O)=O)C3)cc2)c(F)c1 [Compound 89, (R)-3-((R)-3-(2′-fluoro-4′-((R)-2-hydroxypropyl)-[1,1′-biphenyl]-4-yl)-4,5-dihydroisoxazol-5-yl)-N-hydroxy-2-methyl-2-(methylsulfonyl) propanamide] | –
9.22 | 0.125 (≈ 0.325 µM) | C/C=C(\F)c1ccc(C2=NO[C@@H](C[C@](C)(C(=O)NO)S(C)(=O)=O)C2)cc1 [Compound 29, (R)-3-((R)-3-(4-((Z)-1-fluoroprop-1-en-1-yl)phenyl)-4,5-dihydroisoxazol-5-yl)-N-hydroxy-2-methyl-2-(methylsulfonyl)propanamide] | –
> 9.30 | 0.25 (≈ 0.654 µM) | CC#Cc1ccc(C2=NO[C@@H](C[C@](C)(C(=O)NO)S(C)(=O)=O)C2)c(F)c1 [Compound 123, (R)-3-((R)-3-(2-fluoro-4-(prop-1-yn-1-yl)phenyl)-4,5-dihydroisoxazol-5-yl)-N-hydroxy-2-methyl-2-(methylsulfonyl)propanamide] | –
9.30 | 0.06 (≈ 0.143 µM) | CC(O)C#CC#Cc1ccc(C2=NO[C@@H](C[C@](C)(C(=O)NO)S(C)(=O)=O)C2)cc1 (stereo partly drawn) [Compound 30, (2R)—N-hydroxy-3-((5R)-3-(4-(5-hydroxyhexa-1,3-diyn-1-yl)phenyl)-4,5-dihydroisoxazol-5-yl)-2-methyl-2-(methylsulfonyl)propanamide] | –
9.00 | 0.22 (≈ 0.621 µM) | CCc1ccc(C2=NO[C@@H](C[C@](C)(C(=O)NO)S(C)(=O)=O)C2)cc1 [Compound 31, (R)-3-((R)-3-(4-ethylphenyl)-4,5-dihydroisoxazol-5-yl)-N-hydroxy-2-methyl-2-(methylsulfonyl)propanamide] | –
7.77 | 8 (≈ 21.9 µM) | CC#Cc1ccc(C2=NOC(CC(C)(C(=O)NO)S(C)(=O)=O)C2)nc1 (single isomer, unassigned) [Compound 14-B, N-hydroxy-2-methyl-2-(methylsulfonyl)-3-(3-(5-(prop-1-yn-1-yl)pyridin-2-yl)-4,5-dihydroisoxazol-5-yl)propanamide] | –
> 9.30 | 0.35 (≈ 0.94 µM) | CCc1ccc(C2=NO[C@@H](C[C@](C)(C(=O)NO)S(C)(=O)=O)C2)cc1F [Compound 101, (R)-3-((R)-3-(4-ethyl-3-fluorophenyl)-4,5-dihydroisoxazol-5-yl)-N-hydroxy-2-methyl-2-(methylsulfonyl)propanamide] | –
> 9.30 | 1 (≈ 2.37 µM) | C[C@@](C[C@H]1CC(c2ccc(-c3cnccc3F)cc2)=NO1)(C(=O)NO)S(C)(=O)=O [Compound 83, (R)-3-((R)-3-(4-(4-fluoropyridin-3-yl)phenyl)-4,5-dihydroisoxazol-5-yl)-N-hydroxy-2-methyl-2-(methylsulfonyl)propanamide] | –
9.00 | – | COc1ccc(-c2ccc(C3=NO[C@@H](C[C@](C)(C(=O)NO)S(C)(=O)=O)C3)cc2F)cn1 [Compound 105, (R)-3-((R)-3-(3-fluoro-4-(6-methoxypyridin-3-yl)phenyl)-4,5-dihydroisoxazol-5-yl)-N-hydroxy-2-methyl-2-(methylsulfonyl)propanamide] | –
– | 0.25 (≈ 0.529 µM) | C[C@@](C[C@H]1CC(c2ccc(-c3ccc(C4(CO)CC4)cc3)cc2)=NO1)(C(=O)NO)S(C)(=O)=O [Compound 73, (R)—N-hydroxy-3-((R)-3-(4′-(1-(hydroxymethyl)cyclopropyl)-[1,1′-biphenyl]-4-yl)-4,5-dihydroisoxazol-5-yl)-2-methyl-2-(methylsulfonyl)propanamide] | –
8.30 | – | C[C@@](C[C@H]1CC(c2ccc(-c3ccc(CO)nc3)c(F)c2)=NO1)(C(=O)NO)S(C)(=O)=O [Compound 109, (R)-3-((R)-3-(3-fluoro-4-(6-(hydroxymethyl)pyridin-3-yl)phenyl)-4,5-dihydroisoxazol-5-yl)-N-hydroxy-2-methyl-2-(methylsulfonyl)propanamide] | –
– | 1 (≈ 2.21 µM) | COc1cc(-c2ccc(C3=NO[C@@H](C[C@](C)(C(=O)NO)S(C)(=O)=O)C3)cc2)c(F)cn1 [Compound 80, (R)-3-((R)-3-(4-(5-fluoro-2-methoxypyridin-4-yl)phenyl)-4,5-dihydroisoxazol-5-yl)-N-hydroxy-2-methyl-2-(methylsulfonyl) propanamide] | –
– | 0.25 (≈ 0.525 µM) | C[C@@H](O)COc1ccc(-c2ccc(C3=NO[C@@H](C[C@](C)(C(=O)NO)S(C)(=O)=O)C3)cc2)cc1 [Compound 61, (R)—N-hydroxy-3-((R)-3-(4′-((R)-2-hydroxypropoxy)-[1,1′-biphenyl]-4-yl)-4,5-dihydroisoxazol-5-yl)-2-methyl-2-(methylsulfonyl)propanamide] | –
– | 0.71 (≈ 1.46 µM) | C[C@@](C[C@H]1CC(c2ccc(C#Cc3ccc([C@@H](O)CO)cc3)cc2)=NO1)(C(=O)NO)S(C)(=O)=O [Compound 97, (R)-3-((R)-3-(4-((4-((R)-1,2-dihydroxyethyl)phenyl)ethynyl)phenyl)-4,5-dihydroisoxazol-5-yl)-N-hydroxy-2-methyl-2-(methylsulfonyl) propanamide] | –
– | 0.35 (≈ 0.757 µM) | C[C@@](C[C@H]1CC(c2ccc(-c3ccc(C(O)CO)cc3)cc2)=NO1)(C(=O)NO)S(C)(=O)=O (stereo partly drawn) [Compound 72, (2R)-3-((5R)-3-(4′-(1,2-dihydroxyethyl)-[1,1′-biphenyl]-4-yl)-4,5-dihydroisoxazol-5-yl)-N-hydroxy-2-methyl-2-(methylsulfonyl)propanamide] | –

Compound | pIC50 (P. aeruginosa LpxC) | MIC (P. aeruginosa PAO1) [µg/mL] | PAO1 MIC (P. aeruginosa PAO1) [µg/mL]
(R)-3-((R)-3-(2-fluoro-4′-((R)-2-hydroxypropyl)-[1,1′-biphenyl]-4-yl)-4,5-dihydroisoxazol-5-yl)-N-hydroxy-2-methyl-2-(methylsulfonyl)propanamide [Compound 107] | 9.30 | – | 0.25
